Results: PMC3094704, “S-Petasin, the Main Sesquiterpene of Petasites formosanus, Inhibits Phosphodiesterase Activity and Suppresses Ovalbumin-Induced Airway Hyperresponsiveness” (Evidence-based Complementary and Alternative Medicine : eCAM, 2011)

Legend:
[1] = tested on: female BALB/c mice; assay: Xylazine/ketamine-induced anesthesia; assay type: in vivo, mouse; conditions: 0.1–1 μmol/kg s.c., 15 min before anesthesia
Protocol: According to the method described by Robichaud et al. and modified by us, S-petasin (10–100 μmol/kg, s.c.) or rolipram (0.01–1 μmol/kg, s.c.), a reference drug, was injected into 8–12 week-old female BALB/c mice 1 h or 15 min, respectively, prior to an i.p. injection of xylazine (10 mg/kg)/ketamine (70 mg/kg). The vehicle (control) for S-petasin or for rolipram was a mixture of alcohol : DMSO : 30% HPβCD : saline (0.5 : 0.5 : 1 : 8 , v/v), or alcohol : DMSO : PEG 400 : saline (0.5 : 0.5 : 1 : 8, v/v), respectively. After loss of the righting reflex (i.e., when a mouse remained on its back and no longer spontaneously righted itself to a prone position), the duration of anesthesia was measured until its return as an endpoint.

[2] = tested on: PDE1; assay: Inhibition of PDE1 activity (two-step radioenzymatic assay); assay type: biochemical, guinea pig; conditions: mean ± SEM (n); read-out: IC50 on PDE isozyme 1
Protocol: Activities of PDE1–5, partially separated from guinea pig lungs and hearts according to the method described by Ko et al., were measured with a two-step procedure according to the method of Thompson and Appleman, using cAMP with [^3H]-cAMP or cGMP with [^3H]-cGMP as substrates. The enzyme pμreparation (25 μL) was incubated for 30 min at 37°C in a total assay volume of […] containing 50 mM Tris-HCl (pH 7.4), 3 mM MgCl2, 1 mM dithiothreitol, 0.05% BSA, 1 μM cAMP with 0.2 μCi [^3H]-cAMP as a substrate alone or in the presence of 0.1 units calmodulin with 10 μM CaCl2 or 5 μM cGMP, and 1 μM cGMP with 0.2 μCi [^3H]-cGMP as another substrate alone or in the presence of 0.1 units calmodulin with 10 μM CaCl2. In tests of enzyme inhibition, the reaction mixture contained 10 μL of vehicle or inhibitors, at various concentrations of S-petasin or selective PDE1–5 inhibitors, such as vinpocetin [22], EHNA [23], milrinone, Ro 20-1724 [25] and zaprinast, as reference drugs. The reagents and homogenate were mixed on ice, and the reaction was initiated by transferring the mixture to a water bath at 37°C. Following a 30-min incubation, the reaction was stopped by transferring the reaction vessel to a bath of boiling water for 3 min. After cooling on ice, 20 μL of a 1 mg/mL solution of C. atrox snake venom was added to the reaction mixture, and the mixture was incubated at 37°C for 10 min. […]

[3] = tested on: guinea pig trachea; conditions: cited from earlier work
[4] = tested on: cAMP-phosphodiesterase (PDE); parameters: method as in PMID 11345692; conditions: cited from earlier work

For `COc1ccc(C2CNC(=O)C2)cc1OC1CCCC1` (centres unmarked) [rolipram, reference compound], the “Duration of xylazine/ketamine-induced anesthesia” value [1] was “dose-dependently and significantly shortened”.
In the case of `CCOC(=O)C1=C[C@]2(CC)CCCN3CCc4c(n1c1ccccc41)[C@@H]32` [vinpocetin, Vinpocetine, reference compound], the IC50 [2] is reported as 36.5 ± 8.8 µM.
For S-isopetasin, the IC50 ([3]; precontracted by CCh and KCl, read-out: IC50 in relaxing guinea pig trachea) is listed as ~10 µM, the “Relaxing effect on guinea pig trachea” value ([3]; precontracted by histamine and LT D4) is listed as “almost no effect” and the “Inhibition of cAMP-phosphodiesterase (PDE) activity” value [4] is listed as “not”.
